Assay results: ChEMBL document CHEMBL4825708 (J Med Chem, 2021)
pEC50, pIC50: −log10 of the molar value. Converted amounts (≈) assume the structure as drawn.

Experiments:
[1] = in vitro; details: rat
[2] = in vitro; details: human
[3] = test system: MCF7; assay: cells; details: Homo sapiens, MCF7, 72 h
Description: Antiproliferative activity against human MCF-7 cells incubated for 72 hrs by Cell-titer Glo assay

[4] = Kinetic solubility of compound at pH 7.4; details: buffer
[5] = target: T1, Estrogen receptor (Homo sapiens, UniProt P03372); details: mcf7
T1 sequence (P03372 whole entry): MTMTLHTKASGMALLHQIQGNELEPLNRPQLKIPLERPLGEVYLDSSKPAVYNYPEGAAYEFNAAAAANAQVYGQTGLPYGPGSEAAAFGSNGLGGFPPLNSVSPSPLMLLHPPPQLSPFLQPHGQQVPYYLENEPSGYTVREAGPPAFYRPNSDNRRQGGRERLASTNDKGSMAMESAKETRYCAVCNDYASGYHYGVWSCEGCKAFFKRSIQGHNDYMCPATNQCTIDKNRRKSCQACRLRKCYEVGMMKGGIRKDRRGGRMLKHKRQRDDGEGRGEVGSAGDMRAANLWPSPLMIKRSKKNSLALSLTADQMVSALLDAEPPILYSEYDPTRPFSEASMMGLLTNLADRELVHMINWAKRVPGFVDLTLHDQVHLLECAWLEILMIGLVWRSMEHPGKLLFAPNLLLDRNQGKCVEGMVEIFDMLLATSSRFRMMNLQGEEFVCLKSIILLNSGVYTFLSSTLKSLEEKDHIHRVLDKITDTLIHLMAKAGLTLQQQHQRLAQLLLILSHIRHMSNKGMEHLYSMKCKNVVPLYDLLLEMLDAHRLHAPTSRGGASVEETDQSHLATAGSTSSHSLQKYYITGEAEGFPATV
Description: Induction of estrogen receptor degradation in human MCF7 cells incubated for 4 hrs by Alexafluor -488 conjugate anti-mouse IgG staining based fluorescence method

[6] = target: T2, Estrogen receptor (Homo sapiens) (UniProt P03372); details: MCF7, dose 0.0002-100 nM, time 4.0 hrs
T2 sequence (whole entry): T1 sequence (P03372 whole entry)

[7] = Apparent permeability in MDCK cells across apical to basolateral side at 10 uM incubated for 3 hrs by LC-MS/MS analysis; details: dog
[8] = in vivo; details: Sprague-Dawley, rat, po, 1 mg/kg
[9] = in vitro; details: rat; remark: listed apart in the source
[10] = Distribution coefficient, logD of the compound at pH 7.4; details: octanol/water
[11] = Clearance in Sprague-Dawley rat at 1 mg/kg, iv or po measured after 0.033 to 24 hrs by LC/MS/MS analysis; details: in vivo
[12] = in vivo; details: Sprague-Dawley, rat, iv, 1 mg/kg
[13] = in vitro; details: human; remark: listed apart in the source
[14] = target: T1, Estrogen receptor
Description: Antagonist activity at estrogen receptor in human T47D cells incubated for 18 hrs by ultra high sensitivity luminescence reporter gene assay

[15] = target: T2, Estrogen receptor (Homo sapiens); details: MCF7, dose 1.0 nM, time 0.5-24 hrs
[16] = in vivo; details: Sprague-Dawley, rat, po, 5 mg/kg
[17] = rat, in vivo, iv, 1 mg/kg
[18] = target: Nav1.5 (Homo sapiens, UniProt Q14524); assay: Inhibition of human Nav1.5 expressed in CHO cells at 10 uM by QPatch HT assay; details: CHO cells expressing human Nav1.5
[19] = target: Cav1.2 (Homo sapiens, UniProt Q13936); assay: Inhibition of human Cav1.2 expressed in CHO cells at 10 uM by QPatch HT assay; details: CHO cells expressing human Cav1.2
Sequence of Cav1.2 (Q13936 whole entry): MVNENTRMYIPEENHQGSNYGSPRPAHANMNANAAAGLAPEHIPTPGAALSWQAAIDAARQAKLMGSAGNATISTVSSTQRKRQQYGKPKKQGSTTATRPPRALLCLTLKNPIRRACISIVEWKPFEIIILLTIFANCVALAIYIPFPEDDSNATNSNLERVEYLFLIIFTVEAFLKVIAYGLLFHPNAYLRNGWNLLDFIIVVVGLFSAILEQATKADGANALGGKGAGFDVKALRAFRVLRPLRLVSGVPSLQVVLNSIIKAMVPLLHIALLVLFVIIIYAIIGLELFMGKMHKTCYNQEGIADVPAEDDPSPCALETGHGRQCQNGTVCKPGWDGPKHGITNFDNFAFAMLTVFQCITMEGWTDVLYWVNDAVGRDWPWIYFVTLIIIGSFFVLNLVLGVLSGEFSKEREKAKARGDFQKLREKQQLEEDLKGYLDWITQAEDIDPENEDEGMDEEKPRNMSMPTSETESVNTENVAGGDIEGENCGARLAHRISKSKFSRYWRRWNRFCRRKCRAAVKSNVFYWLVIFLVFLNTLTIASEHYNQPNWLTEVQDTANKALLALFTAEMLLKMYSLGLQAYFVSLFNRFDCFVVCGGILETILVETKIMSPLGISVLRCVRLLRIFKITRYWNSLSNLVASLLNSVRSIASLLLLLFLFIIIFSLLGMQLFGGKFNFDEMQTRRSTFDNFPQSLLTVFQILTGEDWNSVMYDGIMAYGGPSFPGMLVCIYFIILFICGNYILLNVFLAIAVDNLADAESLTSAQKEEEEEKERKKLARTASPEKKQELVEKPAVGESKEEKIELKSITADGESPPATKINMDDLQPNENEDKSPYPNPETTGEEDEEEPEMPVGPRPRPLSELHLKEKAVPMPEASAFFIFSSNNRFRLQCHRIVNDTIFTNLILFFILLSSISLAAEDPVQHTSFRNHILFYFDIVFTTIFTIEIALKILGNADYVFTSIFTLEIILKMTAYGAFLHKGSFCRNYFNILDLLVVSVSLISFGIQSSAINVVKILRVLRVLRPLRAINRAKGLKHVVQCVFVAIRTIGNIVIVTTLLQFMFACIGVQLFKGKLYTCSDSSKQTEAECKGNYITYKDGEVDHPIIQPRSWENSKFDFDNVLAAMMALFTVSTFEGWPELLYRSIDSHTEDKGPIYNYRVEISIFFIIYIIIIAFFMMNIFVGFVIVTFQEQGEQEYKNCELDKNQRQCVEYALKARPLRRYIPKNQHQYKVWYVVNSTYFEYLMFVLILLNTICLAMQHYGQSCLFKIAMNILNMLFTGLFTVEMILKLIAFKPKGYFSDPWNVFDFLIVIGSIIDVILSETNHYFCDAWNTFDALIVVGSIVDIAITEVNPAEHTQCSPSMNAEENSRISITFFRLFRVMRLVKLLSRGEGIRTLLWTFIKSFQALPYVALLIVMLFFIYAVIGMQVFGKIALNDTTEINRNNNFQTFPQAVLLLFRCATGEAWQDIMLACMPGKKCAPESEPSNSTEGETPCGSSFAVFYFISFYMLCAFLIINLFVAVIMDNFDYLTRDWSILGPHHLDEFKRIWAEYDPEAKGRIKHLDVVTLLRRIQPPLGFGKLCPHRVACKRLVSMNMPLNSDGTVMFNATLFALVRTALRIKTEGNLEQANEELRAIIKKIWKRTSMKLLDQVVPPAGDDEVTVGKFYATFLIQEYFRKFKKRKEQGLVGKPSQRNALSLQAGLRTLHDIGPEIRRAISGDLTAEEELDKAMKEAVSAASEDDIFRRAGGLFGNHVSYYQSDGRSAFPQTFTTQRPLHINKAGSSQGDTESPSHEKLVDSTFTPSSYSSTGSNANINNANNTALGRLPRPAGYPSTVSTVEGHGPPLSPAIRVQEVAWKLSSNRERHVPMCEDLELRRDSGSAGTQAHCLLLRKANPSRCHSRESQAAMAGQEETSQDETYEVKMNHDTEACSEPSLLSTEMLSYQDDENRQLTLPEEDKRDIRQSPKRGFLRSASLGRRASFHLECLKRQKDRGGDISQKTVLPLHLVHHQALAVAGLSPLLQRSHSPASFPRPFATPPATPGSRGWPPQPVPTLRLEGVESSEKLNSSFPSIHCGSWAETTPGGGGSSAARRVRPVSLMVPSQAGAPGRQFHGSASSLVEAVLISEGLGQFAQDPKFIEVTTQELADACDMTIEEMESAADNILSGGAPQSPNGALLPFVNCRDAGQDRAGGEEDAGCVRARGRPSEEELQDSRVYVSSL

Sequence of Nav1.5 (Q14524 whole entry): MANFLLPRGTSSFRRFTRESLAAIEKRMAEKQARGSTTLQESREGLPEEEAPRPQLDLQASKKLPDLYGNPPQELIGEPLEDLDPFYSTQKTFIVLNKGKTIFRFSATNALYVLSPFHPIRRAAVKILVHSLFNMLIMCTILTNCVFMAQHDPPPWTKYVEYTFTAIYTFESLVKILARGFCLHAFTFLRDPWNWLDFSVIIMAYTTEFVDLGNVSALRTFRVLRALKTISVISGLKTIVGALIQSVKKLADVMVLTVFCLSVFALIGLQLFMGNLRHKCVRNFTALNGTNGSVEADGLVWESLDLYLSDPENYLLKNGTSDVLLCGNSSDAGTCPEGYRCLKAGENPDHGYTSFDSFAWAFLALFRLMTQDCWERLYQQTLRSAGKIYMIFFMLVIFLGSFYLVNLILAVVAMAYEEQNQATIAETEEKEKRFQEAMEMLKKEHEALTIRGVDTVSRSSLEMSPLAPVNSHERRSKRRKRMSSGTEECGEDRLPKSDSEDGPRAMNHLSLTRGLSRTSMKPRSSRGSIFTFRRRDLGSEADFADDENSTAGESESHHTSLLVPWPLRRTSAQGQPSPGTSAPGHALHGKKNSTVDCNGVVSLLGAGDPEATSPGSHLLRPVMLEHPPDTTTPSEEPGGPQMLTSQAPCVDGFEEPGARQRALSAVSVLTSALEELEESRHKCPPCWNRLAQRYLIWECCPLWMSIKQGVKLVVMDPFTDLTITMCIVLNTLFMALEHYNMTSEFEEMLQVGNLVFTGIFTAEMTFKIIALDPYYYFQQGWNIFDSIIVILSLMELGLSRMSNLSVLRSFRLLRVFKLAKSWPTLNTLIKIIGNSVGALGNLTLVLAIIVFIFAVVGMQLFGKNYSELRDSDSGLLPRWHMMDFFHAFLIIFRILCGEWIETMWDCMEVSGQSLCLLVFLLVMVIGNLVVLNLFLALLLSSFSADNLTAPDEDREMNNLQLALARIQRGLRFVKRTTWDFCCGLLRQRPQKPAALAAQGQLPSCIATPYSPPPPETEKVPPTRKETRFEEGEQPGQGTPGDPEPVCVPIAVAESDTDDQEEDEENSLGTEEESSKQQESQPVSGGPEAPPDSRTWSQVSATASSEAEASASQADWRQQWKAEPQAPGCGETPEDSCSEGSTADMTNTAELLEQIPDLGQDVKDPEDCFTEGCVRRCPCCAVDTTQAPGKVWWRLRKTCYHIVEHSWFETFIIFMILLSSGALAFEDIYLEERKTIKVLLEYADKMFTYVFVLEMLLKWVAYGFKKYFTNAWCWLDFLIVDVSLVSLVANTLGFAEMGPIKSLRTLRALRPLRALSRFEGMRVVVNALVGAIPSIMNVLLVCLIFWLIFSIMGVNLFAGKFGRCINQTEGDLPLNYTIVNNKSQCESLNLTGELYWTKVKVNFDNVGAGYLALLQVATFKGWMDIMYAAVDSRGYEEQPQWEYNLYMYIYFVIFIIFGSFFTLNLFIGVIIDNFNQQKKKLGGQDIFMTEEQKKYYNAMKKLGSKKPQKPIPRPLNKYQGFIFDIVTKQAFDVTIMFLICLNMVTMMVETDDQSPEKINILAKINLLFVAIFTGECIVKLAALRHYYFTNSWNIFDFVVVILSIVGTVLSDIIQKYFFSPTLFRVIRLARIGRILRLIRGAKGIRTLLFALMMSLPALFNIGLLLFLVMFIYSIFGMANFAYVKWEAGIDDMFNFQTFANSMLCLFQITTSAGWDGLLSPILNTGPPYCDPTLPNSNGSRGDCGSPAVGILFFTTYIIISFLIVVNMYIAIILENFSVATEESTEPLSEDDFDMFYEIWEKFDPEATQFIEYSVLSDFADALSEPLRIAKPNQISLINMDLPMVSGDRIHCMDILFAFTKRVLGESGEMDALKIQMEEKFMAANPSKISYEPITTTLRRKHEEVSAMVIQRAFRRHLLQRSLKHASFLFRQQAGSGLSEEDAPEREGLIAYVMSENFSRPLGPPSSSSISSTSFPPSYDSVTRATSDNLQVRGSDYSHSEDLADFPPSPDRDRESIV

Compound | CLint scaled at 1 h, 1 µM ([1]; microsomes) [mL/min/kg] | CLint scaled at 1 h, 1 µM ([2]; microsomes) [mL/min/kg] | pEC50 [3] | solubility kinetic [4] [µM] | DC50 [5] [nM] | CLint scaled at 1 h ([9]; hepatocytes) [mL/min/kg] | logD [10] | CLint scaled at 1 h ([13]; hepatocytes) [mL/min/kg] | other results
C[C@@H]1Cc2c([nH]c3ccccc23)[C@@H](c2c(F)cc(NCCNCCCF)cc2F)N1CC(F)(F)CO | < 6 | 7 | 9.22 | 199 (≈ 102 µg/mL) | 0.27 |  |  |  | Emax [6]: 90%
C[C@@H]1Cc2c([nH]c3ccccc23)[C@@H](c2c(F)cc(OC3CN(CCCF)C3)cc2F)N1CC(C)(C)F |  |  | 9.15 | 1 (≈ 0.504 µg/mL) |  | 29 | 4.8 | 7 | Papp A→B at 3 h, 10 µM [7]: 0.4 ×10⁻⁶ cm/s; bioavailability [8]: 31%; clearance [11]: 19 mL/min/kg; clearance [12]: 19 mL/min/kg
C[C@@H]1Cc2c(ccc3[nH]ncc23)[C@@H](c2c(F)cc(OCCN3CC(CF)C3)cc2F)N1CC(C)(C)F | 44 | 17 | 9.10 | 1 (≈ 0.505 µg/mL) | 0.06 |  |  |  | pIC50 [14]: 9.70
C[C@@H]1Cc2c([nH]c3ccccc23)[C@@H](c2c(F)cc(NC3CN(CCC(F)F)C3)cc2F)N1CC(F)(F)CO | 25 | 12 | 9.10 | 42 (≈ 22.7 µg/mL) | 0.02 |  |  |  | pIC50 [14]: 10.05
C[C@@H]1Cc2c([nH]c3cccc(F)c23)[C@@H](c2c(F)cc(NC3CN(CCCF)C3)cc2F)N1CC(F)(F)CO | 19 | 12 | 9.30 | 92 (≈ 49.7 µg/mL) | 0.04 | 23 | 3.3 | 12 | Papp A→B at 3 h, 10 µM [7]: 0.9 ×10⁻⁶ cm/s; pIC50 [14]: 9.82; clearance [12]: 27 mL/min/kg
C[C@@H]1Cc2c([nH]c3ccccc23)[C@@H](c2c(F)cc(O[C@H]3CCN(CCCF)C3)cc2F)N1CC(F)(F)CO | 35 | 15 | 9.52 | 35 (≈ 18.8 µg/mL) | 0.12 |  |  |  | 
C[C@@H]1Cc2c([nH]c3ccccc23)[C@@H](c2c(F)cc(OC3CN(CCCO)C3)cc2F)N1CC(F)(F)CO | 10 | 9 | 9.22 | 163 (≈ 85 µg/mL) | 0.03 |  |  |  | pIC50 [14]: 10.10
CC1=C(c2cccc(O)c2)[C@H](c2ccc(OCCN3CC(CF)C3)cc2)Oc2ccc(O)cc21 |  |  |  | 47 (≈ 21.7 µg/mL) |  | 46 |  |  | Papp A→B at 3 h, 10 µM [7]: 4.6 ×10⁻⁶ cm/s; T1/2 [15]: 6 h; bioavailability [16]: 17%; Emax [6]: 97%
C[C@@H]1Cc2c([nH]c3ccc(F)cc23)[C@@H](c2c(F)cc(NC3CN(CCCF)C3)cc2F)N1CC(F)(F)CO |  |  | 9.30 |  |  |  |  |  | CL free [17]: 1475 mL/min/kg; CLint scaled at 1 h, 1 µM ([1]; rat liver microsomes): 14 mL/min/kg; CLint scaled at 1 h, 1 µM ([2]; human liver microsomes): 10 mL/min/kg; inhibition at 10 µM [18]: 14%; CLint scaled at 1 h ([9]; rat hepatocytes): 15 mL/min/kg; clearance [12]: 18 mL/min/kg; inhibition at 10 µM [19]: 10.7%; CLint scaled at 1 h ([13]; human hepatocytes): 10 mL/min/kg
C[C@@H]1Cc2c([nH]c3ccccc23)[C@@H](c2c(F)cc(OCCN3CC(CF)C3)cc2F)N1CC(C)(C)F | 29 | 10 | 9.00 | 10 (≈ 5.04 µg/mL) |  | 29 | 4 | 6 | bioavailability [8]: 31%; clearance [11]: 34 mL/min/kg
CC/C(=C(\c1ccccc1)c1ccc(OCCN(C)C)cc1)c1ccccc1 [TAMOXIFEN] |  |  | < 6.70 |  |  | 33 |  | 12 | clearance [11]: 95 mL/min/kg; bioavailability [16]: 69%
CC/C(=C(/c1ccc(/C=C/C(=O)O)cc1)c1ccc2[nH]ncc2c1)c1ccc(F)cc1Cl [BRILANESTRANT] |  |  | 7.77 | 19 (≈ 8.49 µg/mL) |  | 6 | 3.8 | 15 | Papp A→B at 3 h, 10 µM [7]: 2.3 ×10⁻⁶ cm/s; clearance [11]: 40 mL/min/kg; bioavailability [16]: 30%
C[C@]12CC[C@@H]3c4ccc(O)cc4C[C@@H](CCCCCCCCC[S+]([O-])CCCC(F)(F)C(F)(F)F)[C@H]3[C@@H]1CC[C@@H]2O (stereo not given in full) [FULVESTRANT] |  |  | 8.62 | 3 (≈ 1.82 µg/mL) |  | 29 | > 5 | 15 | T1/2 [15]: 2.2 h; Emax [6]: 103%
C[C@@H]1Cc2c([nH]c3ccccc23)[C@@H](c2c(F)cc(OCCNCCCF)cc2F)N1CC(F)(F)CO |  |  | 9.05 |  |  |  |  |  | 
C[C@@H]1Cc2c([nH]c3ccccc23)[C@@H](c2c(F)cc(N[C@H]3CCN(CCCF)C3)cc2F)N1CC(F)(F)CO | 26 | 11 | 9.52 | 80 (≈ 42.9 µg/mL) | 0.16 |  |  |  | 
CC/C(=C(\c1ccc(O)cc1)c1ccc(OCCN(C)C)cc1)c1ccccc1 [AFIMOXIFENE] |  |  | 8.46 | 31 (≈ 12 µg/mL) |  | 32 | 4 | 14 | 
C[C@@H]1Cc2c([nH]c3ccccc23)[C@@H](c2ccc(NC3CN(CCCF)C3)nc2)N1CC(F)(F)CO | 23 | 6 | < 6.70 | 114 (≈ 55.6 µg/mL) | > 1000 |  |  |  | pIC50 [14]: < 6.00
